Data set [1] concerns the target T1, human NMUR1 receptor (Homo sapiens, UniProt Q9HB89).
T1 construct: host or cells: CHO-K1
T1 sequence (Q9HB89 24-426 limits assumed): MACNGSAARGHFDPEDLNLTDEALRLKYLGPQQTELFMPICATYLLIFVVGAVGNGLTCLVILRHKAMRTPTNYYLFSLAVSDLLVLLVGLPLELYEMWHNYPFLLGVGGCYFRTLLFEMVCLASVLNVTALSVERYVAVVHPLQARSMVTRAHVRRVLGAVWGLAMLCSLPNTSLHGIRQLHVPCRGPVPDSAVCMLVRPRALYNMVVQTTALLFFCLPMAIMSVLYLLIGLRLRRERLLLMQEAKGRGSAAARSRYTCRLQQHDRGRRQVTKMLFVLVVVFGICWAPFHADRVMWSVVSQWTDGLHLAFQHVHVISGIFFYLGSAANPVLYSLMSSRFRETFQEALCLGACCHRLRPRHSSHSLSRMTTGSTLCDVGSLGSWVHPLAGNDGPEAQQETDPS
Put plainly: Radioligand binding competition assay (RLB), human NMUR1 receptor binding (SPA, [125I]-Neuromedin U-25). As to conditions: CHO-K1 hNMUR1 cell membranes, 4 hours at RT. In short, it runs like this:
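SPA competition binding on CHO-K1 membranes stably expressing human NMUR1 (about 1.0 μg protein) on WGA-PVT beads, using about 30 pM [125I]-Neuromedin U-25. Incubation was 4 h at RT in 25 mM Hepes pH 7.0, 5 mM MgCl2, 1 mM CaCl2, saponin and 0.1% BSA. Non-specific binding was defined by 100 nM unlabeled hNMU-25; values assume one-site reversible equilibrium binding.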

Data set [2] is described as follows: physchem. The data set is classed as physicochemical. In short, it runs like this: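 Peptide TFA salts were shaken at a nominal 10 mg/mL in 0.1 M phosphate buffer, pH 6 to 8, for 2 h at room temperature and then filtered. Reversed-phase HPLC peak area was compared with a 1 mg/mL control in buffer or DMSO to give solubility. The pH of each sample was recorded.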

Data set [3] addresses human NMUR2 receptor (Homo sapiens, UniProt Q9GZQ4). Put plainly: IP1 Gq HTRF assay, activation of human NMUR2 in human plasma. The data set is classed as cell-based. The arrangement: expressed in transfected cells; host or cells: CHO-K1. As to conditions: CHO-K1 cells expressing human NMUR2, 100% human plasma; read-out: EC50 (hNMUR2) human plasma. In short, it runs like this: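 EC50 obtained via 4-parameter sigmoidal regression of HTRF IP-One signal (665 nm/620 nm), which falls as intracellular IP1 rises. Stimulation: 1 h, 37° C, peptides in human plasma plus 50 mM LiCl, 1% DMSO final, on NMUR2-expressing CHO-K1 cells, 8 concentrations.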

Converted amounts (≈) assume the structure as drawn. Residues, ends and D or L forms follow the SMILES beside them.

Sequence of human NMUR2 receptor (Q9GZQ4 whole entry): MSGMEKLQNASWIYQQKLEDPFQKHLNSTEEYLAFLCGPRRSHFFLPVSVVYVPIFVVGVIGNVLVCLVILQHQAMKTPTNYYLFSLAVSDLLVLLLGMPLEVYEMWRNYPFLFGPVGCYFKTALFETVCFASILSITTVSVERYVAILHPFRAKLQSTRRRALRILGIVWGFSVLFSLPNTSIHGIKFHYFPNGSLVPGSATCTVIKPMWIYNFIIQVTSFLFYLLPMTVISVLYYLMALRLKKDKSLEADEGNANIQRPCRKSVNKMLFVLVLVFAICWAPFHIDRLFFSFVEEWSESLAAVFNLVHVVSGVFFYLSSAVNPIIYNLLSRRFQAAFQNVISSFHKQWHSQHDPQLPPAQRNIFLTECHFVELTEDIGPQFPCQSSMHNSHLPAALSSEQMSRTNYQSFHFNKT

By Ki is commonly meant a dissociation constant, usually derived from enzyme kinetics or from competition with a known ligand. In general, solubility refers to how much of the substance goes into solution per volume. Low values mean little dissolved substance, high ones much dissolved substance. In general, EC50 refers to the concentration that produces a half-maximal response. In data set [1], `CCCC[C@H](NC(=O)[C@H](CC(C)C)N(C)C(=O)[C@H](Cc1ccccc1)NC(=O)[C@H](Cc1ccc(O)cc1)NC(=O)CN1CCN(CCNC(=O)CN(C)C(=O)CN(C)C(=O)CN(C)C(=O)CN(C)C(=O)CN(C)C(=O)CN(C)C(=O)CN(C)C(=O)CN(C)C(=O)CN(C)C(=O)CN(C)C(=O)CN(C)C(=O)CN(C)C(=O)CN(C)C(=O)CN(C)C(=O)CN(C)C(=O)CC[C@H](NC(=O)CC[C@H](NC(=O)CC[C@H](NC(=O)CCCCCCCCCCCCCCCCCCC(=O)O)C(=O)O)C(=O)O)C(=O)O)CC1)C(=O)N[C@@H](CCN)C(=O)N1CCC[C@H]1C(=O)N[C@@H](CCCNC(=N)N)C(=O)NCC(N)=O` [Compound 42, C20DA-gGlu3-Sar15-AEPipAc-Tyr-Phe-NMeLeu-Nle-Dbu-Pro-Arg-Gly-NH2] (HELM PEPTIDE1{[O=C(O)CCCCCCCCCCCCCCCCCCC(=O)[*:2]].[gGlu].[gGlu].[gGlu].[Sar].[Sar].[Sar].[Sar].[Sar].[Sar].[Sar].[Sar].[Sar].[Sar].[Sar].[Sar].[Sar].[Sar].[Sar].[O=C(CN1CCN(CCN[*:1])CC1)[*:2]].Y.F.[meL].[Nle].[Dab].P.R.G.[am]}$$$$V2.0) returned a Ki of over 10000 nM. In data set [2] (pH 6.9), this compound had a solubility at 2 h of 5300 µg/mL (≈ 1810 µM). Further, in data set [3], the EC50 came out at 5.8 nM.
Consider `CCCC[C@H](NC(=O)[C@H](CC(C)C)N(C)C(=O)[C@H](Cc1ccccc1)NC(=O)[C@H](Cc1ccc(O)cc1)NC(=O)CN1CCN(CCNC(=O)CN(C)C(=O)CN(C)C(=O)CN(C)C(=O)CN(C)C(=O)CN(C)C(=O)CN(C)C(=O)CN(C)C(=O)CN(C)C(=O)CN(C)C(=O)CN(C)C(=O)CN(C)C(=O)CN(C)C(=O)CN(C)C(=O)CN(C)C(=O)CN(C)C(=O)CC[C@H](NC(=O)CC[C@H](NC(=O)CC[C@H](NC(=O)CCCCCCCCCCCCCCCCCCC(=O)O)C(=O)O)C(=O)O)C(=O)O)CC1)C(=O)N[C@@H](CCN)C(=O)N(C)[C@@H](C)C(=O)N[C@@H](CCCNC(=N)N)C(=O)NCC(N)=O` [Compound 43, C20DA-gGlu3-Sar15-AEPipAc-Tyr-Phe-NMeLeu-Nle-Dbu-NMeAla-Arg-Gly-NH2] (HELM PEPTIDE1{[O=C(O)CCCCCCCCCCCCCCCCCCC(=O)[*:2]].[gGlu].[gGlu].[gGlu].[Sar].[Sar].[Sar].[Sar].[Sar].[Sar].[Sar].[Sar].[Sar].[Sar].[Sar].[Sar].[Sar].[Sar].[Sar].[O=C(CN1CCN(CCN[*:1])CC1)[*:2]].Y.F.[meL].[Nle].[Dab].[meA].R.G.[am]}$$$$V2.0), for which, in data set [1], the Ki is over 10000 nM. For the same compound, the solubility at 2 h in data set [2] (pH 7) was determined as 5600 µg/mL (≈ 1920 µM). Moreover, the half-maximal effective concentration (EC50) in data set [3] was found to be 10.1 nM.

Source of the values: patent publication US20240279278A1, “NMU RECEPTOR 2 AGONISTS” (Boehringer Ingelheim International GmbH, priority 2023, published 2024).
